These results are taken from patent US20160367557A1, “HE[…] ACID DERIVATIVES WHICH ARE USEFUL IN THE TREATMENT, AMELIORATION OR PREVENTION OF A VIRAL DISEASE” (Savira pharmaceuticals GmbH, priority 2012, published 2016).

In data set [1] the test system is influenza A virus (IAV) A/Aichi/2/68 (H3N2). In words: Cytopathic effect (CPE) assay. In kind it is cell-based. The conditions noted are these: MDCK cells, 48 hrs; for IC50: Influenza A virus, H3N2.

One may read the melting point as the temperature of the solid-liquid transition. Compound `O=C(O)Cc1c[nH]c2nc(Nc3ccccc3)nn2c1=O` gave a melting point of 279 to 281 °C. Still for that read-out and setting: the figure for `O=C(O)c1cn(Cc2ccccc2)c2cc(C3CC3)nn2c1=O` is 210 to 215 °C; for `O=C(O)c1cn(CCc2cccc(Cl)c2)c2cc(C3CC3)nn2c1=O` it is 230 to 235 °C. On the same count and under the same terms, the figure for `O=C(O)c1cn(CCc2ccccc2)c2cc(C3CCCC3)nn2c1=O` is 198 to 200 °C; for `O=C(NCCc1ccc(Cl)cc1)c1cc2[nH]cc(C(=O)O)c(=O)n2n1` it is greater than 300 °C.

For the compound `CCOC(=O)c1c[nH]c2c(C#N)c(CCCNC)nn2c1=O`, the melting point lay in the range of 285 to 287 °C. In turn, `O=C(O)c1c[nH]c2cc(C3CC3)nn2c1=O` showed a melting point of 275 to 278 °C.

For `CCOC(=O)c1cn(CCc2ccccc2)c2cc(C(C)C)nn2c1=O`, the melting point lay within 130 to 135 °C. On to `CCOC(=O)Cc1c[nH]c2cc(C3CC3)nn2c1=O`, for which the melting point was 280 to 283 °C. What is called IC50 is the concentration that gives 50% inhibition. The low end stands for greater potency, the high end for weaker potency. With `O=C(O)c1cn(Cc2ccccc2-c2ccccc2)c2sc(NCc3ccccc3)nc2c1=O`, the IC50 in data set [1] came out at 19 µM. As to `COCCNc1nc2c(=O)c(C(=O)O)cn(Cc3ccccc3-c3ccccc3)c2s1`, the “CPE activity in words” value in data set [1] is “inactive”.

As for `O=C(O)c1cn(Cc2ccccc2-c2ccccc2)c2sc(NS(=O)(=O)c3ccccc3)nc2c1=O`, half-maximal inhibition in data set [1] (IC50) required 17 µM. `CNc1nc2c(=O)c(C(=O)O)cn(Cc3ccccc3-c3ccccc3)c2s1`: the “CPE activity in words” value in data set [1] is “inactive”.

Consider `O=C(O)c1cn(Cc2ccccc2-c2ccccc2)c2sc(NC3CC3)nc2c1=O`, for which, in data set [1], the half-maximal inhibitory concentration (IC50) turned out to be 31 µM.

For `CC(C)Nc1nc2c(=O)c(C(=O)O)cn(Cc3ccccc3-c3ccccc3)c2s1`, the “CPE activity in words” value in data set [1] was “inactive”.

`O=C(O)c1cn(Cc2ccccc2-c2ccccc2)c2sc(N3CCOCC3)nc2c1=O`: the “CPE activity in words” value in data set [1] was “inactive”. In data set [1], `O=C(O)c1cn(Cc2ccccc2-c2ccccc2)c2sc(NS(=O)(=O)c3cccc(F)c3)nc2c1=O` gave a half-maximal inhibitory concentration (IC50) of 19 µM. `O=C(O)c1cn(Cc2ccccc2-c2ccccc2)c2sc(NCc3ccc(Cl)cc3)nc2c1=O` yielded an IC50 in data set [1] of 9.3 µM. As for `O=C(O)c1cn(Cc2ccccc2-c2ccccc2)c2sc(NCc3cccc(Cl)c3)nc2c1=O`, the IC50 in data set [1] turned out to be 12 µM. Regarding `COc1ccc(S(=O)(=O)Nc2nc3c(=O)c(C(=O)O)cn(Cc4ccccc4-c4ccccc4)c3s2)cc1`, the midpoint of inhibition in data set [1], the IC50, lay at 15 µM.

On to `O=C(O)c1cn(Cc2ccccc2-c2ccccc2)c2sc(NS(=O)(=O)c3ccc(Cl)cc3F)nc2c1=O`, for which half-maximal inhibition in data set [1] (IC50) was put at 11 µM. `CS(=O)(=O)Nc1nc2c(=O)c(C(=O)O)cn(Cc3ccccc3-c3ccccc3)c2s1`: the “CPE activity in words” value in data set [1] was “inactive”. On to `COc1ccc(CNc2nc3c(=O)c(C(=O)O)cn(Cc4ccccc4-c4ccccc4)c3s2)cc1`, for which the IC50 in data set [1] was 11 µM. In data set [1], `CC(Nc1nc2c(=O)c(C(=O)O)cn(Cc3ccccc3-c3ccccc3)c2s1)c1ccccc1` (centres unmarked) yielded an IC50 of 24 µM.

Consider `O=C(O)c1cn(Cc2ccccc2-c2ccccc2)c2sc(O)nc2c1=O`, for which the IC50 in data set [1] worked out at 33 µM.

The compound `CCOC(=O)c1cn(Cc2ccccc2-c2ccccc2)c2sc(NS(=O)(=O)c3ccc(Cl)cc3)nc2c1=O` gave an IC50 in data set [1] of 23 µM. This IC50 and that of the compound before are within 1.5-fold of each other.

`O=C(O)c1cn(C(c2ccccc2)c2ccccc2)c2sc(NS(=O)(=O)c3ccc(Cl)cc3F)nc2c1=O` gave an IC50 in data set [1] of 26 µM. In turn, `CCOC(=O)c1cn(C(c2ccccc2)c2ccccc2)c2sc(NS(=O)(=O)c3ccc(OC)cc3)nc2c1=O` yielded an IC50 in data set [1] of 36 µM.

As to `CCOC(=O)c1cn(C(c2ccccc2)c2ccccc2)c2sc(NCc3ccc(Cl)cc3)nc2c1=O`, the IC50 in data set [1] is 45 µM.

Take `COc1ccc(CNc2nc3c(=O)c(C(=O)O)cn(Cc4ccc(Cl)cc4-c4ccccc4)c3s2)cc1`: the IC50 in data set [1] is 22 µM. `O=C(O)c1cn(C(c2ccccc2)c2ccccc2)c2sc(NCc3cccc(Cl)c3)nc2c1=O` showed an IC50 in data set [1] of 32 µM. As for `COc1ccc(S(=O)(=O)Nc2nc3c(=O)c(C(=O)O)cn(C(c4ccccc4)c4ccccc4)c3s2)cc1`, the half-maximal inhibitory concentration (IC50) in data set [1] was 31 µM.

In turn, `CCOC(=O)c1cn(C(c2ccccc2)c2ccccc2)c2sc(NCc3cccc(Cl)c3)nc2c1=O` had an IC50 in data set [1] of 27 µM. In turn, `O=C(O)c1cn(C(c2ccccc2)c2ccccc2)c2sc(O)nc2c1=O` showed an IC50 in data set [1] of 47 µM.

`O=C(O)c1cn(Cc2ccc(Cl)cc2-c2ccccc2)c2sc(O)nc2c1=O` came in with a 50% inhibitory concentration (IC50) in data set [1] of 18 µM. Consider `O=C(O)c1cn(C(c2ccccc2)c2ccccc2)c2sc(NCc3ccccc3)nc2c1=O`, for which, in data set [1], the midpoint of inhibition, the IC50, lay at 14 µM. On the same count and under the same terms, the figure for `O=C(O)c1cn(Cc2ccccc2-c2ccccc2)c2sc(NS(=O)(=O)Cc3ccc(Cl)cc3Cl)nc2c1=O` is 20 µM; for `COc1ccc(S(=O)(=O)Nc2nc3c(=O)c(C(=O)O)cn(Cc4ccccc4-c4ccc(Cl)cc4)c3s2)cc1` it is 8.9 µM. On to `O=C(O)c1cn(Cc2ccccc2-c2ccccc2)c2scnc2c1=O`, for which the “CPE activity in words” value in data set [1] was “inactive”. As to `N#Cc1ccc(S(=O)(=O)Nc2nc3c(=O)c(C(=O)O)cn(Cc4ccccc4-c4ccc(Cl)cc4)c3s2)cc1`, in data set [1], inhibition was half-maximal at 14 µM (IC50). Consider `Nc1nc2c(=O)c(C(=O)O)cn(Cc3ccccc3-c3ccccc3)c2s1`, for which, in data set [1], the “CPE activity in words” value is “inactive”. Turning to `O=C(O)c1c[nH]c2cc(C3CCCC3)nn2c1=O`, the “CPE activity in words” value in data set [1] was “inactive”.

On to `CC(C)c1cc2n(CCCc3ccccc3)cc(C(=O)O)c(=O)n2n1`, for which the “CPE activity in words” value in data set [1] is “inactive”. Turning to `CC(C)c1cc2[nH]cc(C(=O)O)c(=O)n2n1`, the “CPE activity in words” value in data set [1] is “inactive”. With `CS(=O)(=O)n1cc(C(=O)O)c(=O)n2nc(N)cc12`, in data set [1], the “CPE activity in words” value was “inactive”. On to `Nc1cc2n(Cc3ccccc3-c3ccccc3)cc(C(=O)O)c(=O)n2n1`, for which the “CPE activity in words” value in data set [1] was “inactive”. Consider `O=C(O)c1cn(Cc2ccccc2-c2ccccc2)c2ccnn2c1=O`, for which the “CPE activity in words” value in data set [1] is “inactive”. With `Nc1cc2n(S(=O)(=O)c3ccccc3)cc(C(=O)O)c(=O)n2n1`, the “CPE activity in words” value in data set [1] is “inactive”.

On to `Nc1cc2n(S(=O)(=O)Cc3ccccc3)cc(C(=O)O)c(=O)n2n1`, for which the “CPE activity in words” value in data set [1] is “inactive”. Regarding `O=C(O)c1c[nH]c2ccnn2c1=O` [drawing 207], the “CPE activity in words” value in data set [1] was “inactive”.

Turning to `O=C(O)c1c[nH]c2nc(NCc3ccccc3)nn2c1=O` [drawing 211], the “CPE activity in words” value in data set [1] was “inactive”.

For `Nc1cc2n(C(=O)C3(c4ccccc4)CCCC3)cc(C(=O)O)c(=O)n2n1` [drawing 213], in data set [1], the “CPE activity in words” value is “inactive”.

Consider `O=C(O)c1cn(CCc2cccc(Cl)c2)c2cc(C3CC3)nn2c1=O` [drawing 215], for which the “CPE activity in words” value in data set [1] is “inactive”. Same read-out and setting: the entry for `O=C(O)c1cn(CCc2cccc(F)c2)c2cc(C3CC3)nn2c1=O` [drawing 216] is “inactive”; for `O=C(O)c1cn(CCc2ccccc2)c2cc(C3CCCC3)nn2c1=O` [drawing 218] it is “inactive”; for `CCOC(=O)c1cn(CCc2ccc(O)cc2)c2cc(C3CC3)nn2c1=O` [drawing 220] it is “inactive”. `O=C(O)c1cn(CCc2cccc(C(F)(F)F)c2)c2cc(C3CC3)nn2c1=O` [drawing 221]: in data set [1], the “CPE activity in words” value was “inactive”.

For `O=C(O)c1cn(CCc2ccc(O)cc2)c2cc(C3CC3)nn2c1=O` [drawing 222], the “CPE activity in words” value in data set [1] was “inactive”. Consider `COc1ccc(CCn2cc(C(=O)O)c(=O)n3nc(C4CC4)cc23)cc1` [drawing 223], for which the “CPE activity in words” value in data set [1] is “inactive”.
